These results are taken from patent publication US5380825A (Sigma Chemical Company, priority 1991, dated 1995).

≈ marks a conversion by molar mass, not a printed value. Bounds are passed on as bounds.

In data set [1] the test system is antibodies from Rabbit No. 1 produced in response to immunization with AZT-3-V:BSA. In words: Fluorescence polarization immunoassay (FPIA) for AZT, standard curve. The format is binding. Particulars: tracer AZT-3-B:FAM Isomer I, zero standard 166. As for the experimental part:
(§1) The immunogen (1 mg in 1 ml) was emulsified with an equal volume of Freund's Complete Adjuvant and injected intradermally into each of two female albino rabbits. The process was repeated in two weeks. Two weeks later, monthly subcutaneous booster injections were begun with 0.5 mg in 0.5 ml of the immunogen and 0.5 ml of Freund's Incomplete Adjuvant per animal. The rabbits were bled biweekly by a marginal ear vein technique beginning six weeks after the primary immunization. The blood collected was refrigerated, allowing clots to form, and the supernatant (antiserum) retained. The antiserum from each rabbit was collected and stored, either at -20° C. without preservative, or at 4° C. after addition of sodium azide to a final concentration of 0.1%. The same schedule was followed for each immunogen. Rabbits immunized produced antibodies to AZT.
(§2) Fluorescence Polarization Immunoassay for AZT
The following procedure illustrates the use of various materials of the invention in a preferred FPIA method.
(§3) An equal volume of precipitation reagent was added per microcentrifuge tube. The tubes were centrifuged at greater than 9,000×g for 1 minute.
(§4) (2) A 17.5 ul sample of each serum extract was brought to approximately pH 7-8 by the addition of buffer.
(§5) (4) After an appropriate incubation time, the polarization of each reaction mixture was determined using a polarization spectrofluorimeter.

For data set [2], the system named is antibodies from Rabbit No. 2 produced in response to immunization with AZT-3-V:BSA. In words: AZT microtiter plate enzyme immunoassay (EIA). The format is binding. Particulars: tracer AZT-3-V:HRPO; for Net Absorbence (B): zero standard 0.367. As for the experimental part: as §1
To each well of a 96 well microtiter plate was added 100 ul of diluted rabbit antibodies (Example 45) to AZT-3-V:BSA prepared via active ester (Example 4) previously fractionated with ammonium sulfate. After incubation overnight, the plate was washed and 300 ul of diluted normal rabbit serum was added to each well to block any unbound sites on the plastic surface of the microtiter plate. The plate was again washed and the excess moisture removed. […] The plate was incubated for 60 minutes at room temperature. The plate was then washed and 300 ul of diluted o-phenylenediaminehydrogen peroxide substrate solution was added to each well. The color was allowed to develop for 90 minutes at room temperature in the dark. Absorbances were then measured spectrophotometrically for each well.

The subject of data set [3] is AZT antibodies. In words: Immunological activity / tracer performance in FPIA for AZT (qualitative). The data set is classed as binding. Conditions: qualitative. As for the experimental part:
as §3, §4, §5

For data set [4] the following is noted: at high dosage levels; cited from earlier work.
For data set [5] the following is noted: major metabolite of AZT; cited from earlier work.
The test system of a further data set is antibody to AZT. In words: Nephelometric inhibition immunoassay (NIA) for AZT. The data set is classed as binding. Particulars: qualitative. On the procedure:
Typically this conjugate is prepared from a high molecular weight carrier such as horse apoferritin or serum proteins.

A short description of the next data set: Solubility in water. The format is physicochemical. Conditions: UV, assuming E^M275 = 8600, read-out: concentration of saturated aqueous solution. On the procedure: A mixture of 25 mg AZT-3-AA (Example 19), 15 mg NOS and 15 mg DCC in 1 ml of THF was stirred two hours at room temperature, then a solution of 25 mg TME in 500 ul of THF/MeOH (9+1) was added and the mixture was stirred overnight at room temperature. The suspension was filtered through a PTFE membrane to remove dicyclohexylurea and chromatographed by TLC on silica gel-F 250 um using the solvent system CHCl3 /MeOH/HOAc (90+10+1). Three major UV-absorbing bands were located: TME, Rf =0.13, ninhydrin positive, Pauly positive, migrates with TME reference; NOS, Rf =0.33, ninhydrin negative, Pauly negative, migrates with NOS reference; and product, Rf =0.40, ninhydrin negative, Pauly positive. The band corresponding to the product was scraped, eluted with MeOH and rechromatographed on RPF 250 um using the solvent system MeOH/H2 O/HOAc (33+66+2) to remove a trace of NOS. In this second chromatography system, Rf =0.42 (product) and Rf =0.81 (NOS). The product was eluted with MeOH/THF (1+1). A saturated aqueous solution was prepared and filtered through a PTFE membrane and stored at -20° C. The saturated aqueous solution was characterized by a UV wavelength scan and concentration of the solute was calculated to be 47 ug/ml, assuming E^M275 =8600.

Data set [6] deals with antisera to AZT, Rabbit 1 (immunized with AZT-3-V:BSA). The experiment in a line: FPIA comparison of tracers, antiserum of Rabbit 1 (Table 1). The data set is classed as binding. Particulars: for Polarization Units (P × 1000): 1 pmole of tracer, antiserum at the given titer; for ED50 AZT: concentration of AZT giving 50% reduction in polarization of this tracer relative to 0 tube; for Titer [Ab]: dilution of antiserum required to obtain the given polarization units with 1 pmole of tracer. As for the experimental part:
as §1, §2, §3, §4, §5
(§6) As further illustration of the invention polyclonal antibodies were raised in two rabbits by immunization with the conjugate of Example 4 (AZT-3-V:BSA) as is more fully described in Example 45 and stored at 4° C. with 0.1% sodium azide. A number of tracers were then compared as to their performance in FPIA using the antisera raised from two rabbits.
(§7) ^(1) TITER was defined as the dilution of antiserum (i.e., [Ab])
(§8) required to obtain the given polarization units (P × 1000) with 1
(§9) required to give a 50% reduction in polarization relative to a control (0
(§10) tube) containing no unlabeled AZT.

Data set [7] deals with antisera to AZT, Rabbit 2 (immunized with AZT-3-V:BSA). The experiment in a line: FPIA comparison of tracers, antiserum of Rabbit 2 (Table 1). The format is binding. Conditions: for Polarization Units (P × 1000): 1 pmole of tracer, antiserum at the given titer; for ED50 AZT: concentration of AZT giving 50% reduction in polarization of this tracer relative to 0 tube; for Titer [Ab]: dilution of antiserum required to obtain the given polarization units with 1 pmole of tracer. As for the experimental part:
as §1, §2, §3, §4, §5, §6, §7, §8, §9, §10

Data set [8] has as its system AZT antibodies. The experiment in a line: Fluorescence quenching technique for assaying AZT. The data set is classed as binding. Particulars: qualitative. The source says:
Fluorescence quenching and fluorescence enhancement immunoassays are other homogeneous fluorescent assays based on the observation that some antibodies, upon binding to a fluorescent molecule, cause either an enhancement or decrease in fluorescence.

Consider `Cc1cn([C@H]2C[C@H](N=[N+]=[N-])[C@@H](CO)O2)c(=O)[nH]c1=O` (single isomer, unassigned) [AZT, 3'-azido-3'-deoxythymidine], for which the “Polarization Units (P × 1000)” value is listed as 155 P × 1000 in data set [1] (AZT 0.2 uM); 141 P × 1000 in data set [1] (AZT 0.6 uM); 118 P × 1000 in [1] (AZT 1.7 uM); 87 P × 1000 in data set [1] (AZT 5.0 uM); 61 P × 1000 in data set [1] (AZT 14.7 uM). Also, the “% B/Bo” value in data set [2] (AZT 0.1 ng/ml) was 88%; in [2] (AZT 0.4 ng/ml) it was 74%; in [2] (AZT 1.6 ng/ml), 56%; in data set [2] (AZT 6.3 ng/ml), 41%; in data set [2] (AZT 25.3 ng/ml), 23%; in data set [2] (AZT 101.1 ng/ml) it was 12%. For the same compound, the “Net Absorbence (B)” value amounted to 0.323 in data set [2] (AZT 0.1 ng/ml); 0.273 in data set [2] (AZT 0.4 ng/ml); 0.205 in [2] (AZT 1.6 ng/ml); 0.149 in [2] (AZT 6.3 ng/ml); 0.085 in data set [2] (AZT 25.3 ng/ml); 0.044 in data set [2] (AZT 101.1 ng/ml). In addition, in the data set on AZT antibodies [3], the “immunological activity in FPIA for AZT” value is “immunologically active”. The side effects entry in data set [4] is given as “serious side effects at high dosage levels”.
As for `Cc1cn([C@H]2C[C@H](N=[N+]=[N-])[C@@H](CO[C@@H]3O[C@H](C(=O)O)[C@@H](O)[C@H](O)[C@H]3O)O2)c(=O)[nH]c1=O` [AZT-5'-glucuronide], in [5], the pharmacological activity result was “believed to be pharmacologically inactive”.
Take `COC(=O)C(Cc1ccc(O)cc1)NC(=O)Cn1c(=O)c(C)cn([C@H]2C[C@H](N=[N+]=[N-])[C@@H](CO)O2)c1=O` (stereo partly drawn) [Example 24, 2-[2-(3'-azido-3'-deoxythymid-3-yl)-acetamido]-3-(4-hydroxyphenyl)-propionic acid methyl ester]: the “immunological activity in FPIA for AZT” value in the data set on AZT antibodies [3] is listed as “immunologically active”. Besides, in the data set with antibody to AZT, the “immunological activity in NIA for AZT” value is on record as “immunologically active”. Moreover, the solubility in “Solubility in water” was 0.047 mg/mL (≈ 93.5 µM).
With `Cc1cn([C@H]2C[C@H](N=[N+]=[N-])[C@@H](CO)O2)c(=O)n(CCNC(=S)Nc2ccc3c(c2)C(=O)OC32c3ccc(O)cc3Oc3cc(O)ccc32)c1=O` [Example 29, 5-[2-(3'-azido-3'-deoxythymid-3-yl)-ethyl-thiocarbamyl]fluorescein], in data set [6], the “Polarization Units (P × 1000)” value was determined as 180 P × 1000, the “ED50 AZT” value is 3.9 mg/L (≈ 5.57 µM) and the “Titer [Ab]” value is listed as 150. Further, in data set [7], the “Polarization Units (P × 1000)” value worked out at 177 P × 1000, the “ED50 AZT” value was found to be 2.9 µg/mL (≈ 4.14 µM) and the “Titer [Ab]” value amounted to 58. Besides, in the data set on AZT antibodies [3], the “performance as tracer for determination of AZT by FPIA” value (from here on “performance as tracer”) is “satisfactory tracer”.
On to `Cc1cn([C@H]2C[C@H](N=[N+]=[N-])[C@@H](CO)O2)c(=O)n(CCCNC(=S)Nc2ccc3c(c2)C(=O)OC32c3ccc(O)cc3Oc3cc(O)ccc32)c1=O` [Example 30, 5-[3-(3'-azido-3'-deoxythymid-3-yl)-propyl-thiocarbamyl]fluorescein], for which, in data set [6], the “Polarization Units (P × 1000)” value was 159 P × 1000, the “ED50 AZT” value is greater than 4.0 mg/L and the “Titer [Ab]” value is listed as 80. In [7], the “Polarization Units (P × 1000)” value is 170 P × 1000, the “ED50 AZT” value came out at 4.0 µg/mL (≈ 5.6 µM) and the “Titer [Ab]” value came out at 80. Further, in the data set on AZT antibodies [3], the “performance as tracer” value is given as “satisfactory tracer”.
Regarding `COc1nc(NCCCn2c(=O)c(C)cn([C@H]3C[C@H](N=[N+]=[N-])[C@@H](CO)O3)c2=O)nc(Nc2ccc3c(c2)C(=O)OC32c3ccc(O)cc3Oc3cc(O)ccc32)n1` [Example 32, 3-[3-[4-(fluoresceinyl-5)-6-methoxy-s-triazin-2-yl]-aminopropyl]-3'-azido-3'-deoxythymidine], in data set [6], the “Polarization Units (P × 1000)” value was found to be 179 P × 1000, the “ED50 AZT” value was found to be 3.1 mg/L (≈ 3.98 µM) and the “Titer [Ab]” value is 550. In data set [7], the “Polarization Units (P × 1000)” value worked out at 170 P × 1000, the “ED50 AZT” value was ~ 8.0 ug/ml and the “Titer [Ab]” value is 183. In addition, the “performance as tracer” value in the data set with AZT antibodies [3] was “satisfactory tracer”.
As for `Cc1cn([C@H]2C[C@H](N=[N+]=[N-])[C@@H](CO)O2)c(=O)n(CCCNc2nc(Cl)nc(Nc3ccc4c(c3)C(=O)OC43c4ccc(O)cc4Oc4cc(O)ccc43)n2)c1=O` [Example 34, 3-[3-[4-(Fluoresceinyl-5)-6-chloro-s-triazin-2-yl]-aminopropyl]-3'-azido-3'-deoxythymidine], in data set [6], the “Polarization Units (P × 1000)” value is recorded as 171 P × 1000, the “ED50 AZT” value turned out to be 2.0 mg/L (≈ 2.55 µM) and the “Titer [Ab]” value came to 500. Also, in data set [7], the “Polarization Units (P × 1000)” value amounted to 168 P × 1000, the “ED50 AZT” value was determined as 4.0 µg/mL (≈ 5.11 µM) and the “Titer [Ab]” value is 140. Also, in the data set with AZT antibodies [3], the “immunological activity in FPIA for AZT” value is “immunologically active”.
`Cc1cn([C@H]2C[C@H](N=[N+]=[N-])[C@@H](COC(=O)CCC(=O)Nc3ccc4c(c3)C(=O)OC43c4ccc(O)cc4Oc4cc(O)ccc43)O2)c(=O)[nH]c1=O` [Example 41, 5-[(3'-azido-3'-deoxythymid-5'-yl)-succinamido]-fluorescein]: the “immunoactivity by fluorescence quenching technique” value in the data set on AZT antibodies [8] was “Immunoactivity of the product was demonstrated”.
For `COC(=O)C(Cc1ccc(O)cc1)NC(=O)CCC(=O)OC[C@H]1O[C@@H](n2cc(C)c(=O)[nH]c2=O)C[C@@H]1N=[N+]=[N-]` (stereo partly drawn) [Example 43, 2-[(3'-azido-3'-deoxythymid-5'-yl)-succinamido]-3-(4-hydroxyphenyl)-propionic acid methyl ester], in the data set on AZT antibodies [3], the “immunological activity in FPIA for AZT” value is given as “immunologically active”. Besides, the “immunological activity in NIA for AZT” value with antibody to AZT is on record as “immunologically active”.
